Laboratory results taken from ChEMBL document CHEMBL2169877, “Antagonists of 5-HT₆ receptors. Substituted 3-(phenylsulfonyl)pyrazolo[1,5-a]pyrido[3,4-e]pyrimidines and 3-(phenylsulfonyl)pyrazolo[1,5-a]pyrido[4,3-d]pyrimidines-Synthesis and 'structure-activity' relationship” (Bioorg Med Chem Lett, 2012).
The source made the active and inactive calls. No cut-off for these calls is given here.

How the values were obtained:
[1] = Binding affinity to central-type GABA(A) receptor flunitrazepam binding site at 1 uM by radioligand displacement assay
[2] = target: Histamine H2 receptor (Homo sapiens) (UniProt P25021); experiment: Binding affinity to histamine receptor H2 at 1 uM by radioligand displacement assay
[3] = target: Adenosine receptor A1 (Homo sapiens) (UniProt P30542); experiment: Binding affinity to adenosine A1 receptor at 1 uM by radioligand displacement assay
[4] = Binding affinity to PDE4 at 1 uM by radioligand displacement assay
[5] = target: Acetylcholinesterase (Homo sapiens) (UniProt P22303); experiment: Binding affinity to AChE at 1 uM by radioligand displacement assay
[6] = Binding affinity to peripheral benzodiazepine receptor at 1 uM by radioligand displacement assay
[7] = target: Sodium-dependent noradrenaline transporter (Homo sapiens) (UniProt P23975); experiment: Binding affinity to NET at 1 uM by radioligand displacement assay
[8] = Binding affinity to PKC at 1 uM by radioligand displacement assay
[9] = Binding affinity to L-type calcium channel benzothiazepine binding site at 1 uM by radioligand displacement assay
[10] = target: Muscarinic acetylcholine receptor M2 (Homo sapiens) (UniProt P08172); experiment: Binding affinity to M2 receptor at 1 uM by radioligand displacement assay
[11] = Binding affinity to P2X receptor at 1 uM by radioligand displacement assay
[12] = target: Glycogen synthase kinase-3 beta (Homo sapiens) (UniProt P49841); experiment: Binding affinity to GSK3beta at 1 uM by radioligand displacement assay
[13] = Binding affinity to Glutamate receptor at 1 uM by radioligand displacement assay
[14] = target: 5-hydroxytryptamine receptor 5A (Homo sapiens) (UniProt P47898); experiment: Binding affinity to 5HT5 receptor at 1 uM by radioligand displacement assay
[15] = target: D(2) dopamine receptor (Homo sapiens) (UniProt P14416); experiment: Binding affinity to dopamine D2S receptor at 1 uM by radioligand displacement assay
[16] = target: Metabotropic glutamate receptor 5 (Homo sapiens) (UniProt P41594); experiment: Binding affinity to mGluR5 at 1 uM by radioligand displacement assay
[17] = target: 5-hydroxytryptamine receptor 4 (Homo sapiens) (UniProt Q13639); experiment: Binding affinity to 5HT4 receptor at 1 uM by radioligand displacement assay
[18] = target: Cyclin-dependent kinase 1/cyclin B1 (Homo sapiens) (UniProt P06493+P14635); experiment: Binding affinity to CDK1/cyclin B at 1 uM by radioligand displacement assay; assay type: protein-complex assay
[19] = target: Alpha-1A adrenergic receptor (Homo sapiens) (UniProt P35348); experiment: Binding affinity to alpha1A adrenergic receptor at 1 uM by radioligand displacement assay
[20] = target: 5-hydroxytryptamine receptor 6 (Homo sapiens, UniProt P50406); experiment: Antagonist activity at human recombinant 5HT6 receptor expressed in […] cells assessed as inhibition of serotonin-induced cAMP accumulation after 2 hrs; assay type: functional, cell-based, HEK293
[21] = Binding affinity to N-type calcium channel at 1 uM by radioligand displacement assay
[22] = target: 5-hydroxytryptamine receptor 3A (Homo sapiens) (UniProt P46098); experiment: Binding affinity to 5HT3 receptor at 1 uM by radioligand displacement assay
[23] = Binding affinity to GABA transporter at 1 uM by radioligand displacement assay
[24] = target: Amine oxidase [flavin-containing] B (Homo sapiens, UniProt P27338); experiment: Binding affinity to MAO-B at 1 uM by radioligand displacement assay
[25] = Binding affinity to sodium channel site 2 at 1 uM by radioligand displacement assay
[26] = target: Cannabinoid receptor 1 (Homo sapiens) (UniProt P21554); experiment: Binding affinity to CB1 receptor at 1 uM by radioligand displacement assay
[27] = Binding affinity to PDE1 at 1 uM by radioligand displacement assay
[28] = Binding affinity to GABA(A) receptor TBOP binding site at 1 uM by radioligand displacement assay
[29] = target: Sodium-dependent serotonin transporter (Homo sapiens) (UniProt P31645); experiment: Binding affinity to serotonin transporter at 1 uM by radioligand displacement assay
[30] = target: Cannabinoid receptor 2 (Homo sapiens) (UniProt P34972); experiment: Binding affinity to CB2 receptor at 1 uM by radioligand displacement assay
[31] = target: RAC-alpha serine/threonine-protein kinase (Homo sapiens) (UniProt P31749); experiment: Binding affinity to AKT1 at 1 uM by radioligand displacement assay
[32] = target: Amine oxidase [flavin-containing] A (Homo sapiens, UniProt P21397); experiment: Binding affinity to MAO-A at 1 uM by radioligand displacement assay
[33] = Binding affinity to PDE5 at 1 uM by radioligand displacement assay
[34] = target: Adenosine receptor A3 (Homo sapiens) (UniProt P0DMS8); experiment: Binding affinity to adenosine A3 receptor at 1 uM by radioligand displacement assay
[35] = target: 5-hydroxytryptamine receptor 2C (Homo sapiens) (UniProt P28335); experiment: Binding affinity to 5HT2C receptor at 1 uM by radioligand displacement assay
[36] = Binding affinity to PDE2 at 1 uM by radioligand displacement assay
[37] = target: cAMP and cAMP-inhibited cGMP 3',5'-cyclic phosphodiesterase 10A (Homo sapiens) (UniProt Q9Y233); experiment: Binding affinity to PDE10A1 at 1 uM by radioligand displacement assay
[38] = target: Alpha-1B adrenergic receptor (Homo sapiens) (UniProt P35368); experiment: Binding affinity to alpha1B adrenergic receptor at 1 uM by radioligand displacement assay
[39] = target: D(1A) dopamine receptor (Homo sapiens) (UniProt P21728); experiment: Binding affinity to dopamine D1 receptor at 1 uM by radioligand displacement assay
[40] = target: 5-hydroxytryptamine receptor 1A (Homo sapiens) (UniProt P08908); experiment: Binding affinity to 5HT1A receptor at 1 uM by radioligand displacement assay
[41] = target: D(2) dopamine receptor (Homo sapiens) (UniProt P14416); experiment: Binding affinity to dopamine D2L receptor at 1 uM by radioligand displacement assay
[42] = target: D(3) dopamine receptor (Homo sapiens) (UniProt P35462); experiment: Binding affinity to dopamine D3 receptor at 1 uM by radioligand displacement assay
[43] = target: Cyclin-dependent kinase 2/cyclin A (Homo sapiens) (UniProt P24941+P20248+P78396); experiment: Binding affinity to CDK2/cyclin A at 1 uM by radioligand displacement assay; assay type: protein-complex assay
[44] = target: Corticotropin-releasing factor receptor 1 (Homo sapiens) (UniProt P34998); experiment: Binding affinity to CRF1R at 1 uM by radioligand displacement assay
[45] = Binding affinity to glycine transporter at 1 uM by radioligand displacement assay
[46] = Binding affinity to choline transporter at 1 uM by radioligand displacement assay
[47] = target: Cyclin-dependent kinase 5/CDK5 activator 1 (Homo sapiens) (UniProt Q00535+Q15078); experiment: Binding affinity to cdk5/p35 at 1 uM by radioligand displacement assay; assay type: protein-complex assay

D(2) dopamine receptor (Homo sapiens), sequence (P14416 whole entry): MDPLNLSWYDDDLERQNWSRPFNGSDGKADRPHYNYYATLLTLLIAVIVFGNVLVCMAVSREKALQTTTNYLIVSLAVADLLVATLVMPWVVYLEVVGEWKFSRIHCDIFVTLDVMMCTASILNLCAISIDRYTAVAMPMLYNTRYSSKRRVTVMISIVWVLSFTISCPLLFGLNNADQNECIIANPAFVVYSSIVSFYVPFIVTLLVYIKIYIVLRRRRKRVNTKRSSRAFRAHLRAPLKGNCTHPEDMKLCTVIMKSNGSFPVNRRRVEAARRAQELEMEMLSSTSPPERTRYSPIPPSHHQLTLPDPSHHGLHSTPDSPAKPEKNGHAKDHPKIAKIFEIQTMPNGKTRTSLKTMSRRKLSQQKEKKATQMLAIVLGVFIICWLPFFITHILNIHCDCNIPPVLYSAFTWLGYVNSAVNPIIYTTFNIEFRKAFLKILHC
5-hydroxytryptamine receptor 4 (Homo sapiens), sequence (Q13639 whole entry): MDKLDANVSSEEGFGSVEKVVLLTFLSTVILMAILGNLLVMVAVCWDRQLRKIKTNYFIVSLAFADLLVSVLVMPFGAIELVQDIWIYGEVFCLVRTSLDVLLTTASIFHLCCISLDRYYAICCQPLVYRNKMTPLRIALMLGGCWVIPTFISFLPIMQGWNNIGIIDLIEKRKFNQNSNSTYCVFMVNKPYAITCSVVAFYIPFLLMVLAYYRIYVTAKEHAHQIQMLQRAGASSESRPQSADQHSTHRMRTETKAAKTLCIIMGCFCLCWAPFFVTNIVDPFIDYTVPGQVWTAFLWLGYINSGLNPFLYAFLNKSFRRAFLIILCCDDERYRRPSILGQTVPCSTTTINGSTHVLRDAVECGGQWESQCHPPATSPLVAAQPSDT
5-hydroxytryptamine receptor 5A (Homo sapiens), sequence (P47898 whole entry): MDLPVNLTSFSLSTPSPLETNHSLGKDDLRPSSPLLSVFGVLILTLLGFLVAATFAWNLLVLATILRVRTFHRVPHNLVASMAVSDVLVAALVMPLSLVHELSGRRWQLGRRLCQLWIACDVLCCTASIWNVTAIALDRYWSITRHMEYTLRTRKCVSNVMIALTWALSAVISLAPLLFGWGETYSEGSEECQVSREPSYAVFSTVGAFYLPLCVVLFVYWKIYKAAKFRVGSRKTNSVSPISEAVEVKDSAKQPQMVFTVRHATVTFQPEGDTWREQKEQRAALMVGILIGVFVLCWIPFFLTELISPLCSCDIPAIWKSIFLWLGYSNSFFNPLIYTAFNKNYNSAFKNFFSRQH
Corticotropin-releasing factor receptor 1 (Homo sapiens), sequence (P34998 whole entry): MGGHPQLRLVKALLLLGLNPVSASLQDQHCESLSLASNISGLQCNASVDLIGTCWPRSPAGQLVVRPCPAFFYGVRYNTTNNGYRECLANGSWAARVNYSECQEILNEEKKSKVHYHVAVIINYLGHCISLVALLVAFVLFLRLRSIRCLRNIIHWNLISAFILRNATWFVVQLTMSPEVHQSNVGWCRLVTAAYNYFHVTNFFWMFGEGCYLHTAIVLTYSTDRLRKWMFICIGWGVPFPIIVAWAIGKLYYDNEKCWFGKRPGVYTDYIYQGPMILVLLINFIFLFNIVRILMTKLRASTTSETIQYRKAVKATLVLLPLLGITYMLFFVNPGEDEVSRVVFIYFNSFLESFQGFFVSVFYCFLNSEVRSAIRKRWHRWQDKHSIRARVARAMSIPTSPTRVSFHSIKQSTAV
5-hydroxytryptamine receptor 1A (Homo sapiens), sequence (P08908 whole entry): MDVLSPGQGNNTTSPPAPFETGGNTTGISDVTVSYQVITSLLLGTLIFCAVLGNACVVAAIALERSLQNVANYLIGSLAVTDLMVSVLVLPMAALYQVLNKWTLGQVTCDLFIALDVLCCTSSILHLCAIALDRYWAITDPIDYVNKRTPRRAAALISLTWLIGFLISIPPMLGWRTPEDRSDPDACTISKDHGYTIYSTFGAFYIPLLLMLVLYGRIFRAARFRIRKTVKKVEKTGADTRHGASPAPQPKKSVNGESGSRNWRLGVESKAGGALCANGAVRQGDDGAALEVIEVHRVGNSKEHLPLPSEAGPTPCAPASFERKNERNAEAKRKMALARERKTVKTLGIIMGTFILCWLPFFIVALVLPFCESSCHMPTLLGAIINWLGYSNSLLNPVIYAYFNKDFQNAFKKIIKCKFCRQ
Alpha-1A adrenergic receptor (Homo sapiens), sequence (P35348 whole entry): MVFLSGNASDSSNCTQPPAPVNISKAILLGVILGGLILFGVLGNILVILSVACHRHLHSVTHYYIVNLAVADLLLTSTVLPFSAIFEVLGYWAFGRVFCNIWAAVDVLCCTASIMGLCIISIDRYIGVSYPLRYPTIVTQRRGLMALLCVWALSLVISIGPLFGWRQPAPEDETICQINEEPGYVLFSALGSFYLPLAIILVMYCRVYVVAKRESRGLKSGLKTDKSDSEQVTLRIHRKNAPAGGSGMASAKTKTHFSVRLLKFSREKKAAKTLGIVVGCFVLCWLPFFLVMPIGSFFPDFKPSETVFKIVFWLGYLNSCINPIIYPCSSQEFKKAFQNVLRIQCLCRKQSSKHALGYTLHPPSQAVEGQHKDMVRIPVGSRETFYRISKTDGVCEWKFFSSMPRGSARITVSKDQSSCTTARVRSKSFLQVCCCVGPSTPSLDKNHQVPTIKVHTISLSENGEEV
cAMP and cAMP-inhibited cGMP 3',5'-cyclic phosphodiesterase 10A (Homo sapiens), sequence (Q9Y233 whole entry): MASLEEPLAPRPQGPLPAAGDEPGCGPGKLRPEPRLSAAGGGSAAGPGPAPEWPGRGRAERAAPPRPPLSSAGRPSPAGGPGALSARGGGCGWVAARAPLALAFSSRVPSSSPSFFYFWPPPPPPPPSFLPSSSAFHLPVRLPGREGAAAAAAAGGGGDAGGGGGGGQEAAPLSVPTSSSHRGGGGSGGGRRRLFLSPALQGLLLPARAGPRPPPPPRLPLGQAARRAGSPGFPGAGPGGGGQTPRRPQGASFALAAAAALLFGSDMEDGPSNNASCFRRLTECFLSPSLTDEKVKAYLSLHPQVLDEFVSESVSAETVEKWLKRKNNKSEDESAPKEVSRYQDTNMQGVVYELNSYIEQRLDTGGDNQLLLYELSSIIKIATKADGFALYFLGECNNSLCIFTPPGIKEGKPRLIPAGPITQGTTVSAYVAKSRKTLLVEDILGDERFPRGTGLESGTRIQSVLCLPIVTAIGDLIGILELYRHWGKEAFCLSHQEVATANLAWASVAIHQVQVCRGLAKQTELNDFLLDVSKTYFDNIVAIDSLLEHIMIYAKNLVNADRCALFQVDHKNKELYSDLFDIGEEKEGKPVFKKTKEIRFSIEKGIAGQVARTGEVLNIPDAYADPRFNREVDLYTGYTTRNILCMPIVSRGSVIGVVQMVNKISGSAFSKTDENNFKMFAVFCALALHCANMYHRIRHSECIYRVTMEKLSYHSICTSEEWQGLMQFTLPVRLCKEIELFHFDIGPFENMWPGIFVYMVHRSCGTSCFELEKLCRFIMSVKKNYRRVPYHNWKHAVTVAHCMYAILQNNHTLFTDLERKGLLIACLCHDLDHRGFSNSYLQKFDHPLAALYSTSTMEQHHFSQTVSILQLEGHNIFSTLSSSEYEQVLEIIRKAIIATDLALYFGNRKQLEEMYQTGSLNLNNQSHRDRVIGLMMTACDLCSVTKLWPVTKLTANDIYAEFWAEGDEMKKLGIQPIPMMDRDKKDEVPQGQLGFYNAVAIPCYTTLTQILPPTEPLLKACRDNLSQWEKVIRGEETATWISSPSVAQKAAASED
Adenosine receptor A1 (Homo sapiens), sequence (P30542 whole entry): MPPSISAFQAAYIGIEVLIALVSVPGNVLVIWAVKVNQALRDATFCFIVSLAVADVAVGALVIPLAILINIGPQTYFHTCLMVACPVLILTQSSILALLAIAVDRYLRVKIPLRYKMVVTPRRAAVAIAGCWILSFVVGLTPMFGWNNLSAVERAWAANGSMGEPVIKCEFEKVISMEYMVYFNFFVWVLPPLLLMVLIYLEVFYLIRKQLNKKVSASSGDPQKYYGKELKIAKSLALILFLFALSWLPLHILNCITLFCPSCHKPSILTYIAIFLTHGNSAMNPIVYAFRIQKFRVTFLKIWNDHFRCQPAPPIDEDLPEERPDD
Amine oxidase [flavin-containing] A, sequence (P21397 whole entry): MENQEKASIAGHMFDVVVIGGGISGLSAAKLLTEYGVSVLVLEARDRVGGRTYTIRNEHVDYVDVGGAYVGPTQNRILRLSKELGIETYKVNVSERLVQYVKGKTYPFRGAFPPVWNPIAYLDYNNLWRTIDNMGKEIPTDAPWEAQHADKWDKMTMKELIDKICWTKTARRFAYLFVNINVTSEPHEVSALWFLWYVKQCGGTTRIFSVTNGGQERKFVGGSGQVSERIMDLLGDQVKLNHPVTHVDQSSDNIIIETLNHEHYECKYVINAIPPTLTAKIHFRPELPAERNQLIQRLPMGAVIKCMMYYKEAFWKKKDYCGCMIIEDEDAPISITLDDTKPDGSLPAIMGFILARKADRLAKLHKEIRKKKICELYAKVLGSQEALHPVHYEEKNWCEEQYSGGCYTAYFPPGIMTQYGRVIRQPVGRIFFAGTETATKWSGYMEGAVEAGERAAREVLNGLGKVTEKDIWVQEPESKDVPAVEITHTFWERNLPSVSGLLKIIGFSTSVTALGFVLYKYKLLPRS
Cannabinoid receptor 2 (Homo sapiens), sequence (P34972 whole entry): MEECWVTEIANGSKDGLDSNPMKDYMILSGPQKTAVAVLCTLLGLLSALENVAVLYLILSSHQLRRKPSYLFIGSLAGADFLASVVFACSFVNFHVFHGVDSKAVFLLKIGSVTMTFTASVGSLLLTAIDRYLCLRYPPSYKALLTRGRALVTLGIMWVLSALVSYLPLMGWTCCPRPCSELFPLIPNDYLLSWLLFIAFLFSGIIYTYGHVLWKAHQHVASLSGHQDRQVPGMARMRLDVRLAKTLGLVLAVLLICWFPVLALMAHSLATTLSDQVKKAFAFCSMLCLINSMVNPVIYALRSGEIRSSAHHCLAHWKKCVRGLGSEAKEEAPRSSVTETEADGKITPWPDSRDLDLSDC

With `CNc1nn2cc3c(nc2c1S(=O)(=O)c1ccccc1)CCN(C)C3` the Activity [1] was “inactive”, the Activity [2] was “inactive” and the Activity [3] was “inactive”. For the same compound, the Activity [4] was “inactive”, the Activity [5] was “inactive” and the Activity [6] was “inactive”. For the same compound, the Activity [7] was “inactive”, the Activity [8] was “inactive” and the Activity [9] was “inactive”. The Activity [10] was “inactive”, the Activity [11] was “inactive” and the Activity [12] was “inactive”. The Activity [13] was “inactive”, the Activity [14] was “inactive” and the Activity [15] was “inactive”. For the same compound, the Activity [16] was “inactive”, the Activity [17] was “inactive” and the Activity [18] was “inactive”. For the same compound, the Activity [19] was “inactive”, the Ki [20] was 14.3 nM and the Activity [21] was “inactive”. For the same compound, the Activity [22] was “inactive”, the Activity [23] was “inactive” and the Activity [24] was “Not Active”. The Activity [25] was “inactive”, the Activity [26] was “inactive” and the Activity [27] was “inactive”. For the same compound, the Activity [28] was “inactive”, the Activity [29] was “inactive” and the Activity [30] was “inactive”. The Activity [31] was “inactive”, the Activity [32] was “Not Active” and the Activity [33] was “inactive”. The Activity [34] was “inactive”, the Activity [35] was “inactive” and the Activity [36] was “inactive”. The Activity [37] was “inactive”, the Activity [38] was “inactive” and the Activity [39] was “inactive”. For the same compound, the Activity [40] was “inactive”, the Activity [41] was “inactive” and the Activity [42] was “inactive”. The Activity [43] was “inactive”, the Activity [44] was “inactive” and the Activity [45] was “inactive”. The Activity [46] was “inactive” and the Activity [47] was “inactive”.
